# Target: T1, PREP (Homo sapiens, UniProt P48147)
# T1 construct: endogenous in cells; host or cells: HEK293 (Cytion, Germany, 300192)
# T1 sequence (P48147 1-710): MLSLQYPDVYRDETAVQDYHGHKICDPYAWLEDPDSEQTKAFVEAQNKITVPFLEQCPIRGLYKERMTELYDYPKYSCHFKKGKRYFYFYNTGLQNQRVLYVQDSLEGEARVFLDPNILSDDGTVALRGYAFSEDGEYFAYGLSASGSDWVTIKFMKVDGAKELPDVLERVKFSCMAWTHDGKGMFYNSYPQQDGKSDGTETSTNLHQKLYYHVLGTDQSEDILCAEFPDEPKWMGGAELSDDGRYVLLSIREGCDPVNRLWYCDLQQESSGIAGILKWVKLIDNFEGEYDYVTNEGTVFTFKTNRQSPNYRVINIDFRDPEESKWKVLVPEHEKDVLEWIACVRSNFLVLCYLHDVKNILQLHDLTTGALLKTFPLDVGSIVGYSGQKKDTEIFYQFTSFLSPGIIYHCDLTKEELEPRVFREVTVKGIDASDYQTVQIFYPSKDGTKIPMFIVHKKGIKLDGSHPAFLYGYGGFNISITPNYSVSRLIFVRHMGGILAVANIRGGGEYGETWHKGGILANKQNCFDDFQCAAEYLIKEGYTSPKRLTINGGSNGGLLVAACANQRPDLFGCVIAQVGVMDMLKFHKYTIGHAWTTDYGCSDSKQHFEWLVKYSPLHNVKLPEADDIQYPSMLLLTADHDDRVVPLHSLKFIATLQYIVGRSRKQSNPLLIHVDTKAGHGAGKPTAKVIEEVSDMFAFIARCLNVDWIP
# Experiment: In situ competitive ABPP in HEK293 cell culture, 70 kDa band
# Format: cell-based
# Conditions: pre-incubation 1 h with 20 µM or 10 µM (method), 10 µM 2 for 1 h, light 5 min
# Experimental: Figure 2 Competitive ABPP with photo‐cleavable inhibitor 5 in HEK293 cells. A) Schematic overview of a competitive ABPP experiment. A proteome is pre‐incubated with a competitor, followed by a labeling reaction with an activity‐based probe (ABP). In the case of a photocaged inhibitor, the active compound can be released via irradiation. Target proteins of the competitor cannot be bound by the ABP, resulting in an absence of the respective protein band in‐gel analysis. Created in BioRender. Najdzion, M. (2025) https://BioRender.com/84zn8cb B) Gel‐based competitive ABPP experiment in HEK293 cell lysates with the broadband serine hydrolase ABP ≡FP or the DPP8/9‐directed ABP 2 and the photocaged inhibitor 5, at the indicated concentrations, after or without prior irradiation with green light for 5 min. The corresponding pre‐incubation time for 5 was 30 min. C) Corresponding in situ competitive ABPP experiment in HEK293 cell culture, again with 10 µM 2 for 1 h. […] HEK293 cells were irradiated with a green LED lamp in the presence of 0.5% DMSO for 5 min (‘light’), and cell viability was measured after 24 h. […] For both compounds, cell viability was measured under ‘dark’ (not irradiated) and ‘light’ (irradiated for 5 min with a green LED lamp after the addition of the inhibitor) conditions. […]
structure (smiles),measurement,value
CCCCCc1ccc(SCCP(=O)(OCC)N2CCC[C@H](NC(=O)OCC3=C4C(C)=CC(C)=[N+]4[B-](C)(C)n4c(C)cc(C)c43)C2=O)cc1 (stereo partly shown) [Compound 5],Competition of PREP labeling in live cells (in words),partially competed

# Reference: article PMC12498190, “A Photocaged N‐Phosphonopiperidinone as a Selective Photo‐Cleavable DPP8/9 Inhibitor” (Chembiochem, 2025)
